Molecules are shown by their SMILES. Read-outs that look alike come from different tables or passages of the source.

Our source for the Ki values is US20200002283A1, “PYRAZOLE DERIVATIVES HAVING ACTIVITY AGAINST PAIN” (priority 2016, published 2020).

Assay [1] has as its target Human α2δ-1 subunit of Cav2.2 calcium channel (Homo sapiens, UniProt P54289). Put plainly: Human α2δ-1 subunit of Cav2.2 calcium channel assay ([3H]-Gabapentin binding). How it is done: Human α2δ-1 Subunit of Cav2.2 Calcium Channel Assay
Human α2δ-1 enriched membranes (2.5 μg) were incubated with 15 nM of radiolabeled [3H]-Gabapentin in assay buffer containing Hepes-KOH 10 mM, pH 7.4. NSB (non specific binding) was measured by adding 10 μM pregabalin. After 60 min incubation at 27° C., binding reaction was terminated by filtering through Multiscreen GF/C (Millipore) presoaked in 0.5% polyethyleneimine in Vacuum Manifold Station, followed by 3 washes with ice-cold filtration buffer containing 50 mM Tris-HCl, pH 7.4. Filter plates were dried at 60° C. for 1 hour and 30 μl of scintillation cocktail were added to each well before radioactivity reading. Readings were performed in a Trilux 1450 Microbeta radioactive counter (Perkin Elmer).

In assay [2] the target is T1, human μ-opioid receptor (Homo sapiens, UniProt P35372).
T1 construct: expressed in transfected cells; host or cells: CHO-K1
Put plainly: Human μ-opioid receptor radioligand assay ([3H]-DAMGO). Format: binding. How it is done:
Human μ-Opioid Receptor Radioligand Assay
To investigate binding properties of test compounds to human μ-opioid receptor, transfected CHO-K1 cell membranes and [^3H]-DAMGO (Perkin Elmer, ES-542-C), as the radioligand, were used. The assay was carried out with 20 μg of membrane suspension, 1 nM of [^3H]-DAMGO in either absence or presence of either buffer or 10 μM Naloxone for total and non-specific binding, respectively. Binding buffer contained Tris-HCl 50 mM, MgCl2 5 mM at pH 7.4. Plates were incubated at 27° C. for 60 minutes. After the incubation period, the reaction mix was then transferred to MultiScreen HTS, FC plates (Millipore), filtered and plates were washed 3 times with ice-cold 10 mM Tris-HCL (pH 7.4). Filters were dried and counted at approximately 40% efficiency in a MicroBeta scintillation counter (Perkin-Elmer) using EcoScint liquid scintillation cocktail.

The mark [3] stands for this setting: human α2δ-1 enriched membranes, 15 nM [3H]-Gabapentin, read-out: α2δ-1 binding.
The mark [4] stands for this setting: transfected CHO-K1 cell membranes, 1 nM [3H]-DAMGO, read-out: μ binding.

T1 sequence (P35372 whole entry): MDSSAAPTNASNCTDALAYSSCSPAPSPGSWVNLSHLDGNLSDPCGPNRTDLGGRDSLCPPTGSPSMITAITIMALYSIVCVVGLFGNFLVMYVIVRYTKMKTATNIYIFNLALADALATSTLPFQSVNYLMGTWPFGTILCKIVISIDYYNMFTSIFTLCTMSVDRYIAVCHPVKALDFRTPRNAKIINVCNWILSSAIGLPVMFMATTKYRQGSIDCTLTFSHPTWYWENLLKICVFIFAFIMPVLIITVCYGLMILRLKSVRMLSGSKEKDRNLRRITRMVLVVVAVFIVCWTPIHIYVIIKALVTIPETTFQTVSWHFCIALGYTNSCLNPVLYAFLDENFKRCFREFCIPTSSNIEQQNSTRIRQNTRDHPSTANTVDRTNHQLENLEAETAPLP
Chain of Human α2δ-1 subunit of Cav2.2 calcium channel (P54289 25-1103): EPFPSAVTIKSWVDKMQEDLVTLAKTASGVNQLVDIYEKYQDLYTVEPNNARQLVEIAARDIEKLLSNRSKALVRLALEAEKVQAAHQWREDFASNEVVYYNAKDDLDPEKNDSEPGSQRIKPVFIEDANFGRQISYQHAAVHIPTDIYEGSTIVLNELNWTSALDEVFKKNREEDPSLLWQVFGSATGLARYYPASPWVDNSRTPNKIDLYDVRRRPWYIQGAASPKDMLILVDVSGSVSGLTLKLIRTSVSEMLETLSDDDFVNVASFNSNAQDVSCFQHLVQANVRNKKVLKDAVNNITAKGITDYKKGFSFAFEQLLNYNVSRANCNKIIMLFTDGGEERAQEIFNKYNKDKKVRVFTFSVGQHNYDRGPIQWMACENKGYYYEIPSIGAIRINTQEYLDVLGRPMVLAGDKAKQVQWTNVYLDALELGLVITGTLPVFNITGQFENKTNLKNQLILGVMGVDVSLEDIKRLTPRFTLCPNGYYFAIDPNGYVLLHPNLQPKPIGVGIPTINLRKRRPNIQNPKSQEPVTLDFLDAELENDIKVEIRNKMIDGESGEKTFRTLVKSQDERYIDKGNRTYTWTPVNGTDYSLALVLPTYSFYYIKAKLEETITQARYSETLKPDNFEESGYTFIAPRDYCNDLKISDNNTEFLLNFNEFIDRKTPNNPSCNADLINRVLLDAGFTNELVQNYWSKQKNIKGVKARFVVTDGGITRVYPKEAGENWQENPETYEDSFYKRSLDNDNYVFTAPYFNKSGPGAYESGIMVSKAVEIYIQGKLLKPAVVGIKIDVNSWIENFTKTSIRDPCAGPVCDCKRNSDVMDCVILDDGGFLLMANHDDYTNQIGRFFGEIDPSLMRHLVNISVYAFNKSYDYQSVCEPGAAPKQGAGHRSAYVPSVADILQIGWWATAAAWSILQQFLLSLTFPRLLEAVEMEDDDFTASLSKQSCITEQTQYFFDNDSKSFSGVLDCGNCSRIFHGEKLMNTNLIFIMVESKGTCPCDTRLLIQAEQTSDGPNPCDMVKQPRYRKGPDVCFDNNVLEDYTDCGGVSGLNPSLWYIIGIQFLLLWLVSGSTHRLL

For `CCC(N)c1cc(Cc2ccc(OC)cc2)n(-c2ccc(Cl)cc2Cl)n1` (centres unmarked) [Example 32, 1-[1-(2,4-Dichlorophenyl)-5-(4-methoxybenzyl)-1H-pyrazol-3-yl]propan-1-amine], the results for the Ki in assay [1] (setting [3]) and in assay [2] (setting [4]) were greater than 5000 nM and greater than 500 nM, respectively.

Take `COc1ccc(C(C)(C)c2cc(C(C)N)nn2-c2ccc(Cl)cc2Cl)cc1` (centres unmarked) [Example 33, 1-[1-(2,4-Dichlorophenyl)-5-(2-(4-methoxyphenyl)propan-2-yl)-1H-pyrazol-3-yl]ethanamine]: the Ki in assay [1] (setting [3]) is greater than 5000 nM; in assay [2] (setting [4]), greater than 500 nM.

In the case of `NCc1cc(Cc2cccc(O)c2)n(-c2ccc(Cl)cc2Cl)n1` [Example 34, 3-{[3-(Aminomethyl)-1-(2,4-dichlorophenyl)-1H-pyrazol-5-yl]methyl}phenol], the figures for the Ki in assay [1] and in assay [2] were 500 to 3000 nM and 100 to 500 nM, respectively.

For `NCc1cc(Cc2ccccc2)n(-c2ccc(O)cc2)n1` [Example 35, 4-[3-(Aminomethyl)-5-benzyl-1H-pyrazol-1-yl]phenol], the Ki is 3000 to 5000 nM in assay [1] (setting [3]) and greater than 500 nM in assay [2] (setting [4]).

Turning to `NCc1cc(Cc2ccccc2)n(-c2cccc(O)c2)n1` [Example 36, 3-[3-(Aminomethyl)-5-benzyl-1H-pyrazol-1-yl]phenol], the Ki in assay [1] (setting [3]) is 3000 to 5000 nM; in assay [2] (setting [4]), greater than 500 nM.

For the compound `COc1ccc(-n2nc(CN)cc2Cc2ccc(O)cc2)c(Cl)c1` [Example 37, 4-{[3-(Aminomethyl)-1-(2-chloro-4-methoxyphenyl)-1H-pyrazol-5-yl]methyl}phenol], the figures for the Ki in assay [1] and in assay [2] were 500 to 3000 nM and less than 100 nM, respectively.

As for `NCc1cc(Cc2ccc(O)cc2)n(-c2ccc(Cl)cc2Cl)n1` [Example 38, 4-{[3-(Aminomethyl)-1-(2,4-dichlorophenyl)-1H-pyrazol-5-yl]methyl}phenol], the results for the Ki in assay [1] and in assay [2] were 500 to 3000 nM and less than 100 nM, respectively.

Regarding `NCc1cc(Cc2ccc(O)cc2)n(-c2ccccc2Cl)n1` [Example 39, 4-{[3-(Aminomethyl)-1-(2-chlorophenyl)-1H-pyrazol-5-yl]methyl}phenol], the Ki was 500 to 3000 nM in assay [1] (setting [3]) and greater than 500 nM in assay [2] (setting [4]).

With `NCc1cc(Cc2ccc(O)cc2)n(-c2ccc(Cl)cc2)n1` [Example 40, 4-{[3-(Aminomethyl)-1-(4-chlorophenyl)-1H-pyrazol-5-yl]methyl}phenol], the figures for the Ki in assay [1] (setting [3]) and in assay [2] (setting [4]) were 3000 to 5000 nM and greater than 500 nM, respectively.

Take `NCc1cc(Cc2ccc(O)cc2)n(-c2ccc(O)cc2Cl)n1` [Example 41, 4-[3-(Aminomethyl)-5-(4-hydroxybenzyl)-1H-pyrazol-1-yl]-3-chlorophenol]: the Ki in assay [1] was greater than 5000 nM; in assay [2], less than 100 nM.

For the compound `NCc1cc(Cc2ccc(O)cc2)n(-c2ccc(F)cc2Cl)n1` [Example 42, 4-{[3-(Aminomethyl)-1-(2-chloro-4-fluorophenyl)-1H-pyrazol-5-yl]methyl}phenol], the results for the Ki in assay [1] and in assay [2] were 500 to 3000 nM and 100 to 500 nM, respectively.

For the compound `NCc1cc(Cc2ccc(O)cc2)n(-c2ccccn2)n1` [Example 43, 4-{[3-(Aminomethyl)-1-(pyridin-2-yl)-1H-pyrazol-5-yl]methyl}phenol], the Ki is greater than 5000 nM in assay [1] (setting [3]) and greater than 500 nM in assay [2] (setting [4]).

With `CC(C)Cn1nc(CN)cc1Cc1ccc(O)cc1` [Example 44, 4-{[3-(Aminomethyl)-1-isobutyl-1H-pyrazol-5-yl]methyl}phenol], the results for the Ki in assay [1] and in assay [2] were less than 500 nM and greater than 500 nM, respectively.

With `NCc1cc(Cc2ccc(O)cc2)n(Cc2ccc(Cl)cc2)n1` [Example 45, 4-{[3-(Aminomethyl)-1-(4-chlorobenzyl)-1H-pyrazol-5-yl]methyl}phenol], the Ki in assay [1] (setting [3]) was 500 to 3000 nM; in assay [2] (setting [4]), greater than 500 nM.

As to `NCc1cc(Cc2ccc(O)cc2)n(Cc2ccccc2)n1` [Example 46, 4-{[3-(Aminomethyl)-1-benzyl-1H-pyrazol-5-yl]methyl}phenol], the results for the Ki in assay [1] (setting [3]) and in assay [2] (setting [4]) were 3000 to 5000 nM and greater than 500 nM, respectively.

On to `NCc1cc(Cc2ccc(O)cc2)n(Cc2ccccc2Cl)n1` [Example 47, 4-{[3-(Aminomethyl)-1-(2-chlorobenzyl)-1H-pyrazol-5-yl]methyl}phenol], for which the Ki in assay [1] (setting [3]) is 500 to 3000 nM; in assay [2] (setting [4]) it was greater than 500 nM.

As to `NCc1cc(Cc2ccc(O)cc2)n(Cc2ccc(Cl)cc2Cl)n1` [Example 48], the Ki is 500 to 3000 nM in assay [1] (setting [3]) and greater than 500 nM in assay [2] (setting [4]).

`CC(c1ccccc1)n1nc(CN)cc1Cc1ccc(O)cc1` (centres unmarked) [Example 49, 4-{[3-(Aminomethyl)-1-(1-phenylethyl)-1H-pyrazol-5-yl]methyl}phenol]: the Ki was greater than 5000 nM in assay [1] (setting [3]) and greater than 500 nM in assay [2] (setting [4]).

As to `CCNCc1cc(Cc2ccc(O)cc2)n(CC(C)C)n1` [Example 50, 4-({3-[{Ethylamino)methyl]-1-isobutyl-1H-pyrazol-5-yl}methyl)phenol], the figures for the Ki in assay [1] (setting [3]) and in assay [2] (setting [4]) were 3000 to 5000 nM and greater than 500 nM, respectively.

Regarding `CC(N)c1cc(Cc2ccc(O)cc2)n(-c2ccc(Cl)cc2Cl)n1` (centres unmarked) [Example 51, 4-{[3-(1-Aminoethyl)-1-(2,4-dichlorophenyl)-1H-pyrazol-5-yl]methyl}phenol], the Ki was less than 500 nM in assay [1] and less than 100 nM in assay [2].

Take `CC(N)c1cc(Cc2ccc(O)c(F)c2)n(-c2ccc(Cl)cc2Cl)n1` (centres unmarked) [Example 52, 4-{[3-(1-Aminoethyl)-1-(2,4-dichlorophenyl)-1H-pyrazol-5-yl]methyl}-2-fluorophenol]: the Ki in assay [1] was less than 500 nM; in assay [2] it was less than 100 nM.

For `CCCC(N)c1cc(Cc2ccc(O)c(F)c2)n(-c2ccc(Cl)cc2Cl)n1` (centres unmarked) [Example 53, 4-{[3-(1-Aminobutyl)-1-(2,4-dichlorophenyl)-1H-pyrazol-5-yl]methyl}-2-fluorophenol], the Ki was less than 500 nM in assay [1] and less than 100 nM in assay [2].

With `CCC(N)c1cc(Cc2ccc(O)cc2)n(-c2ccc(Cl)cc2Cl)n1` (centres unmarked) [Example 54, 4-{[3-(1-Aminopropyl)-1-(2,4-dichlorophenyl)-1H-pyrazol-5-yl]methyl}phenol], the values for the Ki in assay [1] and in assay [2] were 500 to 3000 nM and 100 to 500 nM, respectively.

Regarding `CC(N)c1cc(C(C)(C)c2ccc(O)cc2)n(-c2ccc(Cl)cc2Cl)n1` (centres unmarked) [Example 55, 4-{2-[3-(1-Aminoethyl)-1-(2,4-dichlorophenyl)-1H-pyrazol-5-yl]propan-2-yl]phenol], the Ki is 500 to 3000 nM in assay [1] (setting [3]) and greater than 500 nM in assay [2] (setting [4]).

Turning to `CC(C)(N)c1cc(Cc2ccc(O)c(F)c2)n(-c2ccc(Cl)cc2Cl)n1` [Example 56, 4-{[3-(2-Aminopropan-2-yl)-1-(2,4-dichlorophenyl)-1H-pyrazol-5-yl]methyl}-2-fluorophenol], the Ki in assay [1] was 3000 to 5000 nM; in assay [2], less than 100 nM.

Consider `CC(C)(N)c1cc(Cc2ccc(O)cc2)n(-c2ccc(Cl)cc2Cl)n1` [Example 57, 4-{[3-(2-Aminopropan-2-yl)-1-(2,4-dichlorophenyl)-1H-pyrazol-5-yl]methyl}phenol], for which the Ki was 3000 to 5000 nM in assay [1] and less than 100 nM in assay [2].

Turning to `NCCc1cc(Cc2ccc(O)cc2)n(-c2ccc(Cl)cc2Cl)n1` [Example 58, 4-{[3-(2-Aminoethyl)-1-(2,4-dichlorophenyl)-1H-pyrazol-5-yl]methyl}phenol], the Ki in assay [1] was 3000 to 5000 nM; in assay [2], less than 100 nM.

In the case of `CC(CN)c1cc(Cc2ccc(O)cc2)n(-c2ccc(Cl)cc2Cl)n1` (centres unmarked) [Example 59, 4-{[3-(1-Aminopropan-2-yl)-1-(2,4-dichlorophenyl)-1H-pyrazol-5-yl]methyl}phenol], the Ki in assay [1] was greater than 5000 nM; in assay [2] it was less than 100 nM.
